This note sets out measurements from US5646283A, “Tetracyclic compound” (Kyowa Hakko Kogyo Co., Ltd., priority 1993, dated 1997).

The test system of data set [1] is spleen cells. Briefly: Plaque Forming Cell Assay (inhibition rate of the antibody production). It is filed as cell-based, Balb/c strain mice. The conditions noted are these: Mus musculus, read-out: Inhibition rate (antibody production, PFC); for inhibition at 0.1 µM: Concentration 10^-7 M; for inhibition at 0.01 µM: Concentration 10^-8 M; for inhibition at 10 µM: Concentration 10^-5 M.

In a further data set the test system is dd mice. Briefly: Acute toxicity. The note with it: mortality after 7 days. It is filed as in vivo. As for the experimental part: The test compound was administered to dd mice having a weight of 20 to 25 g per os (p.o.) and intraperitoneally (i.p.). MLD (minimum lethal dose) was evaluated by measuring the mortality after 7 days from the day of administration.

For data set [2], the system named is spleen cells. Kind of data set: Plaque Forming Cell Assay (inhibition rate of the antibody production). Type of data set: cell-based, Balb/c strain mice. The conditions noted are these: Mus musculus; Concentration 10^-6 M; read-out: Inhibition rate (antibody production, PFC). As for the experimental part: Plaque Forming Cell Assay
The plaque forming cell assay was carried out by the following manner with reference to the method of Jerne et al. [Science, 140, 405 (1963)] and the method of Yamamoto et al. [Drugs Experimental Clinical Research, III(1), 5 (1982)].
Male Balb/c strain mice (7-week-old) (Charles River Co.) were sensitized with 1×10^8 sheep erythrocytes (product of Biotest Research Institute) administered via the caudal vein, and the spleens were extirpated 6 or 7 days after the sensitization. The extirpated spleens were immersed in Hanks' solution (Nissui Seiyaku) to make a cell suspension, which was then filtered, followed by centrifugal separation at 1200 rpm for 5 minutes. After centrifugal separation, the supernatant was discarded and the precipitate was treated with Tris.NH4 Cl solution to remove the erythrocytes, and then washed three times with Hanks' solution. After discarding the supernatant, the cells were suspended in an RPMI-1640 medium (Nissui Seiyaku) containing 10% bovine fetal serum (Gibco Co.), 50 μg/ml of streptomycin (Meiji Seika), […] of penicillin (Meiji Seika) and 2-mercaptoethanol (5×10^-5 M). In each well of a micro culture plate (NUNK Co., Ltd., 24 wells) were put 2 ml of the mixture of the cell suspension containing 1×10^7 of spleen cells, 5×10^6 sheep erythrocites and a test compound solution (10^-6 M) obtained by diluting the test compound dissolved in dimethylsulfoxide (10^-2 M) with the above mentioned RPMI-1640, and the cells were cultured at 37° C. for 5 days.
After the completion of the culturing, the cells were subjected to centrifugal separation at 2000 rpm for 5 minutes, and the resulting supernatant was removed. The precipitate was suspended in 1 ml of Hanks' solution, again subjected to centrifugal separation, suspended in 1 ml of Hanks' solution, and then, 50 μl of the suspension and 50 μl of sheep erythrocytes were added to 400 μl of 0.25% agarose/Hanks' solution heated to 50° C. in advance, and the mixture was scattered on a glass slide, placed on a plaque assay plate, and together with guinea pig complement (Cedarlene Institute) diluted 40-fold with a phosphate buffer solution, incubated at 37° C. for 1 to 2 hours. The number of the appearing direct plaque cells (direct PFC count) in suspension was counted.
The inhibition rate of the antibody production of the test compound was determined by the following equation. [formula]
The compound used for comparison was 5,6-dihydro-9-fluoro-3-phenylbenz[c]acridine-7-carboxylic acid [Japanese Published Unexamined Patent Application No. 233661/90, hereinafter referred to as Compound (A)] represented by formula (A). [drawing 62]
PFC count in Control means PFC count in the absence of the test compound (dimethylsulfoxide alone).

Bounds are passed on as bounds.

Turning to `O=C(O)c1c2c(nc3ccc(F)cc13)-c1cc(F)c(-c3ccccc3)cc1CCC2` [Compound 28, 2,10-Difluoro-6,7-dihydro-3-phenyl-5H-benzo[6,7]cyclohepta[1,2-b]quinoline-8-carboxylic acid], the inhibition at 0.1 µM in the data set on spleen cells [1] stood at 90.1%. For the same compound, the inhibition at 0.01 µM in the data set with spleen cells [1] amounted to 73.6%. In addition, the “MLD (minimum lethal dose)” value in the data set with dd mice (i.p.) and in the data set with dd mice (p.o.) was > 100 throughout. The inhibition at 1 µM in the data set with spleen cells [2] stood at 93.6%.
As to `O=C(O)c1c2c(nc3ccc(F)cc13)-c1ccc(-c3cccs3)cc1CC2` [Compound 4, 5,6-Dihydro-9-fluoro-3-(2-thienyl)benz[c]acridine-7-carboxylic acid], in the data set on spleen cells [1], the inhibition at 10 µM was 99.8% and the inhibition at 0.1 µM was determined as 88.4%. In addition, the “MLD (minimum lethal dose)” value in the data set with dd mice (i.p.) was > 100. Further, the “MLD (minimum lethal dose)” value in the data set on dd mice (p.o.) is given as > 300. Further, in the data set on spleen cells [2], the inhibition at 1 µM is 99.2%.
For `O=C(O)c1c2c(nc3ccc(F)cc13)-c1cc(F)c(-c3ccccc3F)cc1CCC2` [Compound 13, 2,10-Difluoro-6,7-dihydro-3-(2-fluorophenyl)-5H-benzo[6,7]cyclohepta[1,2-b]quinoline-8-carboxylic acid], in the data set on spleen cells [1], the inhibition at 10 µM worked out at 95.2% and the inhibition at 0.1 µM was found to be 82.4%. The inhibition at 1 µM in the data set on spleen cells [2] came out at 95.7%.
The like results for `O=C(O)c1c2c(nc3ccc(F)cc13)-c1ccc(-c3ccc(F)cc3F)cc1CC2` [Compound 2, 3-(2,4-Difluorophenyl)-5,6-dihydro-9-fluorobenz [c]acridine-7-carboxylic acid] were, in that order, 98%, 86.7% and 96.3%.
Turning to `O=C(O)c1c2c(nc3ccc(F)cc13)-c1ccc(-c3c(F)cccc3F)cc1CC2` [Compound 3, 3-(2,6-Difluorophenyl)-5,6-dihydro-9-fluorobenz[c]acridine-7-carboxylic acid], the inhibition at 10 µM in the data set with spleen cells [1] came to 99.7%. In addition, the inhibition at 0.1 µM with spleen cells [1] came out at 68.9%. In addition, the “MLD (minimum lethal dose)” value is given as > 100 in the data set with dd mice (i.p.) and > 300 in the data set on dd mice (p.o.). The inhibition at 1 µM in the data set with spleen cells [2] came out at 99.4%.
Turning to `O=C(O)c1c2c(nc3ccc(F)cc13)-c1ccc(-c3ccc(F)cc3)cc1CC2` [Compound 1, 5,6-Dihydro-9-fluoro-3-(4-fluorophenyl)benz[c]acridine-7-carboxylic acid], in the data set with spleen cells [1], the inhibition at 10 µM turned out to be 98.1% and the inhibition at 0.1 µM came out at 69.2%. The inhibition at 1 µM in the data set on spleen cells [2] was 93.5%.
Consider `O=C(O)c1c2c(nc3ccc(F)cc13)-c1ccc(-c3ccccc3)cc1CC2` [Compound A1, 5,6-dihydro-9-fluoro-3-phenylbenz[c]acridine-7-carboxylic acid, reference compound], for which, in the data set on spleen cells [1], the inhibition at 10 µM was determined as 78.6%. In addition, the inhibition at 1 µM in the data set with spleen cells [2] is 45.9%.
Regarding `O=C(O)c1c2c(nc3ccc(F)cc13)-c1ccc(-c3ccccc3)cc1CCC2` [Compound 46, 6,7-Dihydro-10-fluoro-3-phenyl-5H-benzo[6,7]cyclohepta[1,2-b]quinoline-8-carboxylic acid], in the data set with spleen cells [1], the inhibition at 10 µM is 94.9% and the inhibition at 0.1 µM was found to be 81.4%. Further, the inhibition at 1 µM in the data set with spleen cells [2] stood at 84.8%.
In the case of `O=C(O)c1c2c(nc3ccc(F)cc13)-c1cc(F)c(-c3ccccc3F)cc1CC2` [Compound 17, 2,9-Difluoro-5,6-dihydro-3-(2-fluorophenyl)benz[c]acridine-7-carboxylic acid], in the data set on spleen cells [1], the inhibition at 0.1 µM is 82.5% and the inhibition at 0.01 µM was found to be 59.8%. For the same compound, the inhibition at 1 µM in the data set on spleen cells [2] stood at 91%.
Take `O=C(O)c1c2c(nc3ccc(F)cc13)-c1cc(F)c(-c3ccccc3)cc1CC2` [Compound 16, 2,9-Difluoro-5,6-dihydro-3-phenylbenz[c]acridine-7-carboxylic acid]: in the data set on spleen cells [1], the inhibition at 0.1 µM came out at 88.5% and the inhibition at 0.01 µM came to 56.8%. In addition, the inhibition at 1 µM with spleen cells [2] worked out at 94.1%.

One may read the inhibition as the change of the read-out against control, counted positive when it falls.
